The target of assay [1] is T1, AHR (Homo sapiens, UniProt P35869).
T1 construct: U87 MG glioblastoma cells (ATCC #HTB-14) endogenously expressing AHR; endogenous in cells; host or cells: U87 MG glioblastoma cells (ATCC #HTB-14)
T1 sequence (P35869 11-848): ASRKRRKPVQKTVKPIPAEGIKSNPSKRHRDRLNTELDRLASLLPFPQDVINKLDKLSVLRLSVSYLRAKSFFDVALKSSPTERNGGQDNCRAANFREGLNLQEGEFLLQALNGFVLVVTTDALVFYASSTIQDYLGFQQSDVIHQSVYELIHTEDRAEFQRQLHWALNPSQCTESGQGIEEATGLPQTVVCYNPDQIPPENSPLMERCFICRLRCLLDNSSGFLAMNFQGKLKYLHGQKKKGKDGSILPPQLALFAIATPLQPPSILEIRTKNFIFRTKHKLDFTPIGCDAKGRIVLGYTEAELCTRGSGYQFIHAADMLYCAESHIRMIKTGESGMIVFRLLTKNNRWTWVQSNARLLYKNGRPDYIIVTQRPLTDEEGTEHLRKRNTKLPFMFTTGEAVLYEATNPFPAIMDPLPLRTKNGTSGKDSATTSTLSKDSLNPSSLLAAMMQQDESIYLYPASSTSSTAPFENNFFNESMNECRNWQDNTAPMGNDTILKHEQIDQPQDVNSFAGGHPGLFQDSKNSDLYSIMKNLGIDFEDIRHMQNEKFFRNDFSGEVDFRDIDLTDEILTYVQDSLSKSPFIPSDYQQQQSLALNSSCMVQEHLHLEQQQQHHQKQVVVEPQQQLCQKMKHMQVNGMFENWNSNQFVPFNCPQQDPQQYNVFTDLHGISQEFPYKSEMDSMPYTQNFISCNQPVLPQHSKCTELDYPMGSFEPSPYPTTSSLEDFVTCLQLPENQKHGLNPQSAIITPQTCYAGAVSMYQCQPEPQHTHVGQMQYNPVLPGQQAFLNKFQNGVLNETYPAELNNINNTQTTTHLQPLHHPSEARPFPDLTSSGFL
In words: In vitro assay 1: antagonism in human cell line (AHR transactivation, firefly luciferase reporter, kynurenic acid prestimulated). The settings on record: AHR Antagonism Human IC50 [M]. In kind it is cell-based. The essentials:
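U87 MG + DRE-firefly/constitutive-Renilla stable reporters; kynurenic acid prestim; dual-luc read; Renilla = tox; normalized vs pos/neg controls (pos: 150 μM KYNA + 5 μM staurosporine).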
A general note: In a reporter assay the amount or activity of a reporter protein is the signal.

Assay [2] has as its target T2, AHR (Mus musculus, UniProt P30561).
T2 sequence (P30561 1-848 P471L/N533S/M589L): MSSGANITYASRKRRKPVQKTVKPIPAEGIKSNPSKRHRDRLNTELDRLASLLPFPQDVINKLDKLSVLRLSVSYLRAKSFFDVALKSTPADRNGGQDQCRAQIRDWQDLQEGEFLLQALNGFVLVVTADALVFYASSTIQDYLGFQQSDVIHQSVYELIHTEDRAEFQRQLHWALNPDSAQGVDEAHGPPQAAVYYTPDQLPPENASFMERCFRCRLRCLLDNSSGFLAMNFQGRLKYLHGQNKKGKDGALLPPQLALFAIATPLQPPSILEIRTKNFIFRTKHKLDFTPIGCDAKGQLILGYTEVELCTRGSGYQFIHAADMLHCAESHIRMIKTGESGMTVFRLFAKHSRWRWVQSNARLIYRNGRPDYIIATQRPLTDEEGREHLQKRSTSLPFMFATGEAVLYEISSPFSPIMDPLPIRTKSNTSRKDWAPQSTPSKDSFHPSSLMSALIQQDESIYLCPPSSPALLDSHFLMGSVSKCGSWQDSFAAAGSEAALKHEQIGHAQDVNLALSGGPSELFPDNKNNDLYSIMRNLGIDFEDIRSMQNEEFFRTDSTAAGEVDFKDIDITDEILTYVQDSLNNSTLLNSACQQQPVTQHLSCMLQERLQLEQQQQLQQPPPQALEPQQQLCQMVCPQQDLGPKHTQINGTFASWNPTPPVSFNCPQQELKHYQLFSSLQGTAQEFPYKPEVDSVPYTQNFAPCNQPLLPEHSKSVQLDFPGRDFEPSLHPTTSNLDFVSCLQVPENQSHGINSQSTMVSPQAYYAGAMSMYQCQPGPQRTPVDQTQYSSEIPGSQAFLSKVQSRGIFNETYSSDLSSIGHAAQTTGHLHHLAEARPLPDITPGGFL
The assay can be described thus: In vitro assay 3: antagonism in mouse cell line (AHR transactivation, firefly luciferase reporter, kynurenic acid prestimulated). In kind it is cell-based. The settings on record: 200 μM kynurenic acid, 20 hours, read-out: AHR Antagonism Mouse IC50. The essentials: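 Mouse cells stably carrying a DRE-driven, AHR-inducible firefly luciferase reporter were prestimulated with the endogenous agonist kynurenic acid before compound addition. Luciferase activity was measured by luminescence and normalized to positive and negative controls, with cells lacking kynurenic acid serving as full-inhibition control. Repeat tests are reported as mean or median.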

[3] abbreviates: Hepa 1c1c7 cells, firefly luciferase reporter.

Like-named read-outs stand apart in the source and are kept apart here. Bounds are passed on as bounds.

We go through 21 compounds from patent US20230113037A1 (Bayer Aktiengesellschaft, priority 2019, published 2023).

Take `CC[C@@H](Nc1nc2ccccc2c2nc(-c3csc(C)c3)nn12)C(N)=O` [Example 358]: the figures for the IC50 against AHR [1] and at AHR [2] (mouse Hepa 1c1c7 cells) were 3.15e-09 M and 1.78 nM, respectively.

Take `COc1cccc(-c2nc3c4ccccc4nc(NC4CCN(C)C4=O)n3n2)c1` (single isomer, unassigned) [Example 123, 3-{[2-(3-methoxyphenyl)[1,2,4]triazolo[1,5-c]quinazolin-5-yl]amino}-1-methylpyrrolidin-2-one]: the IC50 amounted to 3.65e-07 M on AHR [1] and 1870 nM on AHR [2] (mouse Hepa 1c1c7 cells).

As to `COc1ccc(-c2nc3c4cccc(Br)c4nc(N[C@H](C)C(=O)N4CC5(CN(C)C5)C4)n3n2)cc1` [Example 918, (2R)-2-{[7-bromo-2-(4-methoxyphenyl)[1,2,4]triazolo[1,5-c]quinazolin-5-yl]amino}-1-(6-methyl-2,6-diazaspiro[3.3]heptan-2-yl)propan-1-one], the IC50 worked out at 3.07e-08 M on AHR [1] (firefly luciferase reporter) and 31.9 nM on AHR [2] (setting [3]).

On to `COc1cccc(-c2nc3c4ccccc4nc(N[C@H](C)C(=O)NCCCO)n3n2)c1` [Example 112, N-(3-hydroxypropyl)-N^2-[2-(3-methoxyphenyl)[1,2,4]triazolo[1,5-c]quinazolin-5-yl]-D-alaninamide], for which the values for the IC50 against AHR [1] and on AHR [2] (mouse Hepa 1c1c7 cells) were 3.79e-08 M and 6 nM, respectively.

On to `CSc1ccccc1-c1nc2c3ccccc3nc(N[C@@H]3CCCCNC3=O)n2n1` [Example 478, (3R)-3-({2-[2-(methylsulfanyl)phenyl][1,2,4]triazolo[1,5-c]quinazolin-5-yl}amino)azepan-2-one], for which the IC50 at AHR [1] came out at 4.98e-08 M; at AHR [2] (mouse Hepa 1c1c7 cells), 2.99 nM.

As for `COc1ccc(-c2nc3c4cccc(Br)c4nc(N[C@H](C)C(=O)N4CC5(CN(C(=O)OC(C)(C)C)C5)C4)n3n2)cc1` [Example 920, tert-butyl 6-{N-[7-bromo-2-(4-methoxyphenyl)[1,2,4]triazolo[1,5-c]quinazolin-5-yl]-D-alanyl}-2,6-diazaspiro[3.3]heptane-2-carboxylate], the IC50 at AHR [1] (firefly luciferase reporter) amounted to 7.45e-09 M; on AHR [2] (setting [3]), 11 nM.

Regarding `CC[C@H](Nc1nc2c(C(F)(F)F)cccc2c2nc(-c3ccnn3C)nn12)C(N)=O` [Example 805, (2S)-2-{[2-(1-methyl-1H-pyrazol-5-yl)-7-(trifluoromethyl)[1,2,4]triazolo[1,5-c]quinazolin-5-yl]amino}butanamide], the values for the IC50 against AHR [1] (firefly luciferase reporter) and at AHR [2] (setting [3]) were 1.9e-07 M and 70.4 nM, respectively.

Turning to `Cn1cc(-c2nc3c4cc(Br)cc(Br)c4nc(N[C@@H]4CCCCNC4=O)n3n2)cn1` [Example 594, (3R)-3-{[7,9-dibromo-2-(1-methyl-1H-pyrazol-4-yl)[1,2,4]triazolo[1,5-c]quinazolin-5-yl]amino}azepan-2-one], the results for the IC50 at AHR [1] and on AHR [2] (mouse Hepa 1c1c7 cells) were 5.01e-07 M and over 20000 nM, respectively.

Regarding `CCn1cc(-c2nc3c4cccc(Br)c4nc(N[C@@H]4CNCCNC4=O)n3n2)c(C)n1` [Example 974], the IC50 against AHR [1] (firefly luciferase reporter) stood at 8.12e-10 M; on AHR [2] (setting [3]), 1.86 nM.

With `COc1ccc(-c2nc3c4cccc(Br)c4nc(N[C@@H]4CNCCNC4=O)n3n2)cc1` [Example 270, (6R)-6-{[7-bromo-2-(4-methoxyphenyl)[1,2,4]triazolo[1,5-c]quinazolin-5-yl]amino}-1,4-diazepan-5-one], the IC50 at AHR [1] amounted to 7.93e-10 M; at AHR [2] (mouse Hepa 1c1c7 cells), 0.946 nM.

As for `COc1ccc(-c2nc3c4cccc(Br)c4nc(N[C@H](C)C(=O)N4CCN(C)CC4)n3n2)cc1` [Example 788, (2R)-2-{[7-bromo-2-(4-methoxyphenyl)[1,2,4]triazolo[1,5-c]quinazolin-5-yl]amino}-1-(4-methylpiperazin-1-yl)propan-1-one], the IC50 is 4.64e-10 M at AHR [1] (firefly luciferase reporter) and 2.08 nM at AHR [2] (setting [3]).

As to `CC(C)n1cc(-c2nc3c4ccccc4nc(N[C@@H]4CCCCNC4=O)n3n2)cn1` [Example 195, (3R)-3-({2-[1-(propan-2-yl)-1H-pyrazol-4-yl][1,2,4]triazolo[1,5-c]quinazolin-5-yl]amino)azepan-2-one], the IC50 on AHR [1] turned out to be 3.06e-09 M; on AHR [2] (mouse Hepa 1c1c7 cells), 2.55 nM.

As to `CCCNC(=O)[C@@H](C)Nc1nc2ccccc2c2nc(-c3cccc(OC(F)(F)F)c3)nn12` [Example 321, N-propyl-N2-{2-[3-(trifluoromethoxy)phenyl][1,2,4]triazolo[1,5-c]quinazolin-5-yl}-D-alaninamide], the IC50 against AHR [1] was determined as 2.06e-08 M; at AHR [2] (mouse Hepa 1c1c7 cells), 12.4 nM.

As for `N#Cc1cccc2nc(N[C@@H]3CCCCNC3=O)n3nc(-c4ccc(F)cc4)nc3c12` [Example 248, 2-(4-fluorophenyl)-5-{[(3R)-2-oxoazepan-3-yl]amino}[1,2,4]triazolo[1,5-c]quinazoline-10-carbonitrile], the IC50 turned out to be 5.71e-09 M at AHR [1] and 1.82 nM on AHR [2] (mouse Hepa 1c1c7 cells).

For the compound `COc1ccc(-c2nc3c4cc(OC)ccc4nc(N[C@@H]4CCCCNC4=O)n3n2)cc1` [Example 237, (3R)-3-{[9-methoxy-2-(4-methoxyphenyl)[1,2,4]triazolo[1,5-c]quinazolin-5-yl]amino}azepan-2-one], the IC50 on AHR [1] turned out to be 1.33e-08 M; on AHR [2] (mouse Hepa 1c1c7 cells), 38.7 nM.

For the compound `O=C1NCCCC[C@H]1Nc1nc2ccccc2c2nc(-c3cnn(CCO)c3)nn12` [Example 601, (3R)-3-({2-[1-(2-hydroxyethyl)-1H-pyrazol-4-yl][1,2,4]triazolo[1,5-c]quinazolin-5-yl}amino)azepan-2-one], the IC50 came to 2.96e-07 M on AHR [1] and 158 nM on AHR [2] (mouse Hepa 1c1c7 cells).

Consider `CC(C)n1cc(-c2nc3c4cccc(F)c4nc(N[C@@H]4CCCCNC4=O)n3n2)cn1` [Example 836], for which the concentration for half-maximal inhibition (IC50) was found to be 4.19e-09 M at AHR [1] (firefly luciferase reporter) and 4.95 nM on AHR [2] (setting [3]).

As for `Cc1cncc(-c2nc3c4ccccc4nc(N[C@@H]4CCCCNC4=O)n3n2)c1` [Example 636, (3R)-3-{[2-(5-methylpyridin-3-yl)[1,2,4]triazolo[1,5-c]quinazolin-5-yl]amino}azepan-2-one], the IC50 turned out to be 2.32e-08 M at AHR [1] and 5.98 nM at AHR [2] (mouse Hepa 1c1c7 cells).

Turning to `CCn1cc(-c2nc3c4cccc(Br)c4nc(N[C@@H]4CNCCNC4=O)n3n2)cn1` [Example 980, (6R)-6-{[7-bromo-2-(1-ethyl-1H-pyrazol-4-yl)[1,2,4]triazolo[1,5-c]quinazolin-5-yl]amino}-1,4-diazepan-5-one], the IC50 came to 5.22e-09 M at AHR [1] (firefly luciferase reporter) and 6.35 nM at AHR [2] (setting [3]).

With `C[C@H]1CN(C(=O)[C@@H](C)Nc2nc3c(Br)cccc3c3nc(-c4cnn(C)c4)nn23)CCO1` [Example 908, (2R)-2-{[7-bromo-2-(1-methyl-1H-pyrazol-4-yl)[1,2,4]triazolo[1,5-c]quinazolin-5-yl]amino}-1-[(2S)-2-methylmorpholin-4-yl]propan-1-one], the IC50 on AHR [1] (firefly luciferase reporter) was 2.87e-08 M; on AHR [2] (setting [3]) it was 18.8 nM.

In the case of `COc1ccc(-c2nc3c4c(OC)cccc4nc(N[C@@H]4CNCCNC4=O)n3n2)cc1` [Example 291, (6R)-6-{[10-methoxy-2-(4-methoxyphenyl)[1,2,4]triazolo[1,5-c]quinazolin-5-yl]amino}-1,4-diazepan-5-one], the figures for the IC50 at AHR [1] and on AHR [2] (mouse Hepa 1c1c7 cells) were 2.65e-06 M and 2680 nM, respectively.

In general, IC50 refers to the concentration that gives 50% inhibition.
